Measured values: patent US20230339862A1, “NOVEL DIBENZOACRIDINIUM DERIVATIVES, THEIR PROCESS OF PREPARATION AND THEIR USE FOR TREATING VIRAL INFECTIONS” (priority 2020, published 2023)
Like-named read-outs stand apart in the source and are kept apart here.

Assays:
HIV-1 [1] = settings: primary infected cells versus MT4 infected cell lines; cited from earlier work
HIV-1 [2] = settings: MT4 cells, reported in 2014; read-out: IC50 HIV-1 infectivity; cited from earlier work
HIV-1 [3] = assay: microbe, parasite or virus in culture; format: cell-based; settings: for inhibition of HIV-1 infectivity: 10 µM
Ebola Gabon virus = assay: microbe, parasite or virus in culture; format: cell-based; settings: Zaire ebolavirus, read-out: Ebola virus inhibition (immunohistochemistry, infectious titer)
Marburg virus = assay: organism not typed; format: cell-based; settings: read-out: Marburg virus inhibition (immunohistochemistry, infectious titer)

Q: With `CN(C)c1ccc(Nc2c3ccc(NC(=O)CCN4CCCC4)cc3nc3cc(NC(=O)CCN4CCCC4)ccc23)cc1` [Braco19] as the compound, how does the “antiviral effect in primary infected cells” value (HIV-1 [1]) read?
A: The value was “less efficient with respect to MT4 infected cell lines”.

Q: What about the IC50 (HIV-1 [2]) of the same compound?
A: Its IC50 is roughly 6 µM.

Q: What about the IC50 (HIV-1 [3]; Human immunodeficiency virus 1, HeLaP4, read-out: IC50 HIV-1 infectivity) of the same compound?
A: Its IC50 is roughly 8 µM.

Q: What does the source list for `COc1ccc2c(ccc3c2cc2c4ccc(OC)cc4ccc2[n+]3-c2ccccc2)c1.[Cl-]` [C031]?
A: activity on HIV-1 relative to BRACO-19 (HIV-1 [3]): at least five time more active; inhibition of HIV-1 infectivity (HIV-1 [3]): Complete inhibition

Q: With `c1ccc(-[n+]2c3ccc4ccccc4c3cc3c4ccccc4ccc32)cc1` [C038] as the compound, how does the “inhibition of HIV-1 infectivity” value (HIV-1 [3]) read?
A: The value was “Complete inhibition”.

Q: Which “activity on HIV-1 relative to BRACO-19” value (HIV-1 [3]) does the source give for `COc1ccc2c(ccc3c2cc2c4ccc(OC)cc4ccc2[n+]3-c2ccc([N+](=O)[O-])cc2)c1` [C0370] here?
A: The value was “at least five time more active”.

Q: What about the “selectivity index (SI)” value (HIV-1 [3]) of the same compound?
A: Its value is 17.

Q: What about the “inhibition of HIV-1 infectivity” value (HIV-1 [3]) of the same compound?
A: Its value is “Complete inhibition”.

Q: For `c1ccc(C[n+]2c3ccc4ccccc4c3cc3c4ccccc4ccc32)cc1` [CO39], which inhibition at 5 µM (Ebola Gabon virus; 5 μM) is on record?
A: The inhibition at 5 µM was roughly 60%.

Q: And the inhibition at 20 µM (Ebola Gabon virus; 20 μM)?
A: Its inhibition at 20 µM is roughly 100%.

Q: And the inhibition at 5 µM (Marburg virus; 5 μM)?
A: Its inhibition at 5 µM is 30%.

Q: What about the inhibition at 20 µM (Marburg virus; 20 μM) of the same compound?
A: Its inhibition at 20 µM is roughly 100%.
